“And” between values parts separate entries of the source, which are not always exact repeats. Equal entries are not always repeated. Where two headings read alike, the source gives them in different places.
Key:
[1] = biological target: T1, HA-tagged human 5-HT4 receptor (Homo sapiens, UniProt Q13639); assay: cAMP production, agonist mode, transfected COS-7 cells; assay type: cell-based; details: for Top AMPc / EC50 / Log(EC50): agonist mode; for EC50: unit not given; for Log(EC50): given as Log(EC50)
T1 construct: HA; expressed in transfected cells; host or cells: COS-7 cells (ATCC CRL-1651), transient transfection
From the text: (§1) Figure 5 Determination of the 5-HT4 pharmacological profiles for compounds 16, 32a and 33 by quantification of cAMP production. (A) Assay to determine the agonism activity (with serotonin and the partial agonist RS-67333 as references). (B) Assay to determine the antagonism activity (with the antagonist GR113808 as reference). Data presented are the mean of three independent experiments performed in duplicate.
(§2) COS-7 cells were purchased from ATCC (ATCC CRL-1651; LGC […], Molsheim, France). T were grown in Dulbecco’s modified Eagle medium (DMEM) supplemented with 10% dialyzed fetal calf serum (dFCS) and antibiotics. Cells were transiently transfected with plasmid encoding HA-tagged human 5-HT4 receptor, then seeded in 96-well plates (35,000 cells/well). 24 hrs after transfection, cells were washed once with 200 µl of HBS (20 mM HEPES; 150 mM NaCl; 4.2 mM KCl; 0.9 mM CaCl2; 0.5 mM MgCl2; 0.1% glucose; 0.1% BSA) and, after HBS removal, exposed to the indicated concentrations of 5-HT4R ligands in the presence of 0.1 mM of the phosphodiesterase inhibitor RO-20-1724, at 37 °C in 100 µl of HBS. After 10 min, cells were then lysed by addition of the same volume of Triton-X100 (0.1%) during 30 min at 37 °C. The competition assay in antagonist mode was performed as follows: after one wash in 200 µl of HBS, cells were exposed to 5-HT4R ligands at twice the indicated concentration, at 37 °C in 50 µl of HBS. After 7 min, serotonin (final concentration of 5.10^−7M) was added in 50 µl of HBS in the presence of the phosphodiesterase inhibitor RO-20-1724 (final concentration of 0.1 mM). After 10 min, cells were then lysed by addition of the same volume of Triton-X100 (0.1%) during 30 min at 37 °C. Quantification of cAMP production was performed by HTRF by using the cAMP Dynamic kit (Cisbio Bioassays) according to the manufacturer’s instructions

[2] = biological target: T2, human 5-HT4R (5-HT4(b) receptor membranes) (Homo sapiens, UniProt Q13639); assay: h5-HT4R competition binding with [3H]-GR113808; details: for inhibition: 0.2 nM [3H]-GR113808
T2 construct: purchased Millipore HTS110M
Description: The competition studies used membrane preparations made from proprietary stable recombinant cell lines expressing the 5-HT4(b) receptor to ensure high-level of GPCR surface expression (HTS110M, Millipore). Membranes (2.5 µg protein) were incubated in duplicate at 25 °C for 60 min in the absence or the presence of 10^–6 or 10^–8M of each drug and 0.2 nM [^3H]-GR 113808 (VT 240, ViTrax) in 25 mM Tris buffer (pH 7.4, 25 °C). At the end of the incubation, homogenates were filtered through Whatman GF/C filters (Alpha Biotech) pre-soaked with 0.5% polyethylenimine using a Brandel cell harvester. Filters were subsequently washed three times with 4 mL of ice-cold 25 mM Tris buffer (pH 7.4, 4 °C). Non-specific binding was evaluated in parallel in the presence of 30 μM serotonin.
For some of these compounds, affinity constants were calculated from five-point inhibition curves using the EBDA-Ligand software and expressed as Ki ± SD[41].

[3] = biological target: T3, hAChE (AChE from human erythrocytes) (Homo sapiens, UniProt P22303); assay: hAChE inhibition, spectrometric Ellman method; assay type: biochemical
T3 construct: AChE from human erythrocytes; purchased Sigma Aldrich; host or cells: human erythrocytes (tissue-derived enzyme)
Description: Inhibitory capacity of compounds on AChE biological activity was evaluated through the use of the spectrometric method of Ellman[39]. Acetylthiocholine and 5,5-dithiobis-(2-nitrobenzoic) acid (DTNB) were purchased from Sigma Aldrich. AChE from human erythrocytes (buffered aqueous solution, ≥500 units/mg protein (BCA), Sigma Aldrich) was diluted in 20 mM HEPES buffer pH 8, 0.1% Triton X-100 such as to have enzyme solution with 0.25 unit/mL enzyme activity. In the procedure, 100 μL of 0.3 mM DTNB dissolved in phosphate buffer pH 7.4 were added into the 96 wells plate followed by 50 μL of test compound solution and 50 μL of enzyme ([…]). After 5 min of preincubation at 25 °C, the reaction was then initiated by the injection of 50 μL of 10 mM acetylthiocholine iodide solution. The hydrolysis of acetylthiocholine was monitored by the formation of yellow 5-thio-2-nitrobenzoate anion as the result of the reaction of DTNB with thiocholine, released by the enzymatic hydrolysis of acetylthiocholine, at a wavelength of 412 nm using a 96-well microplate plate reader (TECAN Infinite M200, Lyon, France). Test compounds were dissolved in analytical grade DMSO. Donepezil was used as a reference standard. The rate of absorbance increase at 412 nm was followed every minute for 10 min. Assays were performed with a blank containing all components except acetylthiocholine, in order to account for non-enzymatic reaction. The reaction slopes were compared and the percent inhibition due to the presence of test compounds was calculated by the following expression: 100 − (vi/v0 × 100) where vi is the rate calculated in the presence of inhibitor and v0 is the enzyme activity.
For the compounds with significant inhibition (≥50%), IC50 values were determined graphically by plotting the % inhibition versus the logarithm of six inhibitor concentrations in the assay solution using the Origin software.

[4] = biological target: T1, HA-tagged human 5-HT4 receptor; assay: cAMP production, competition assay in antagonist mode vs serotonin, transfected COS-7 cells; assay type: cell-based; details: for Bott. AMPc: antagonist mode
From the text: as §1, §2

[5] = tested on: 5-HT4dR; details: cited from earlier work
[6] = tested on: BuChE; parameters: method as in PMID 8064800; details: cited from earlier work
[7] = parameters: method as in PMID 8064800; details: mouse; cited from earlier work
[8] = tested on: AChE; details: read-out: AChE IC50; cited from earlier work
[9] = parameters: method as in PMID 8064800; details: cited from earlier work
[10] = biological target: h5-HT4eR; details: donecopride reference value; read-out: 5-HT4R Ki; cited from earlier work
[11] = tested on: 5-HT4R; details: cited from earlier work
[12] = tested on: hAChE; parameters: method as in PMID 25157130; details: donecopride reference value; cited from earlier work
[13] = parameters: method as in PMID 25157130; details: mice; cited from earlier work
[14] = individual experiments HP5, HP6, HP7

T1 sequence (Q13639 whole entry): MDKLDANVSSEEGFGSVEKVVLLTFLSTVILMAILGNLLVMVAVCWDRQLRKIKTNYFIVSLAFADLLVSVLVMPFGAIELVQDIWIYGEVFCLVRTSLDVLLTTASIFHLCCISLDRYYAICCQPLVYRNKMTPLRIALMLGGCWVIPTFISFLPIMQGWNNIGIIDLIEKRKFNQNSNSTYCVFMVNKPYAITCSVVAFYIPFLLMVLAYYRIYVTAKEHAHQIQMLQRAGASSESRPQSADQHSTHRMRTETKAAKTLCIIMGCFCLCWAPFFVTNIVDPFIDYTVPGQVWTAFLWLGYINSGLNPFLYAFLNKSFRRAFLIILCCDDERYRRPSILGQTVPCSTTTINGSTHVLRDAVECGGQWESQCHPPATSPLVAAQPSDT
T2 sequence (Q13639 whole entry): as above
T3 sequence (P22303 other isoform, or with tags, fused parts or gaps): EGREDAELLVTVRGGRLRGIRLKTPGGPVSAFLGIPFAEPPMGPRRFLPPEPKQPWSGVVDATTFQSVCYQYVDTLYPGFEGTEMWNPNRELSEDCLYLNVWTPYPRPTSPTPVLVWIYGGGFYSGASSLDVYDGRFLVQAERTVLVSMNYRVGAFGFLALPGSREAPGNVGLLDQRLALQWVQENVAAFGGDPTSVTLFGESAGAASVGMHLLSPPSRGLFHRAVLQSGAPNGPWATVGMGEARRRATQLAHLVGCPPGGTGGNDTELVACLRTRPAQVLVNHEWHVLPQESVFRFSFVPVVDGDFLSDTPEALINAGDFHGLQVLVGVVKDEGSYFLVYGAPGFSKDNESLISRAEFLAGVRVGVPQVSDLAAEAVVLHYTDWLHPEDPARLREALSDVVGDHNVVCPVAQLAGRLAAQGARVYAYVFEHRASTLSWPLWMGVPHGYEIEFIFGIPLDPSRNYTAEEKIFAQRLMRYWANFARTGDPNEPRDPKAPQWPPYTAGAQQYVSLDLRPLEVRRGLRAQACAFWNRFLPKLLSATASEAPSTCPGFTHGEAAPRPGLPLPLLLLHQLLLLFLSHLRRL

In the case of `Oc1cccc2onc(CCC3CCN(CC4CCCCC4)CC3)c12` [Compound 33], the “Top AMPc” value ([1]; Moy.) is reported as -3%, the EC50 ([1]; Moy. (mean of HP5-HP7)) is reported as “ns” and the “Log(EC50)” value ([1]; Moy., negative) is reported as “ns”. The “Top AMPc” value [1, 14] was -15.21% and 4.96% and 0.00%, the “Log(EC50)” value [1, 14] was “ns” and the EC50 [1, 14] was “ns”. The “5-HT4 pharmacological profile (agonism assay)” value ([1]; cAMP production, COS-7 cells) was “not agonist”, the Ki [2] was 37 ± 10.5 nM and the inhibition ([2]; 10^−6 M compound, read-out: h5-HT4R % inhibition at 10^−6 M (converted)) was 100%. The inhibition ([2]; 10^−8 M compound, read-out: h5-HT4R % inhibition at 10^−8 M (converted)) was 29%, the inhibition at 1 µM ([3]; 10^−6 M compound) was 87% and the IC50 ([3]; Ellman method, n = 2) was 97.3 ± 1.5 nM. The IC50 ([4]; IC50 (5-HT4R antagonist, cAMP production), COS-7 cells, serotonin 5.10^−7 M, mean of three experiments) was 883 ± 598 nM, the “Bott. AMPc” value ([4]; Moy.) was 44% and the “Bott. AMPc” value ([4]; individual experiments HP8, HP10, HP11) was 50.44% and 46.43% and 34.27%. For the same compound, the “5-HT4 pharmacological profile (antagonism assay)” value ([4]; cAMP production, COS-7 cells) was “antagonists”.

For `OC1(CN2CCC(COc3noc4cccc(O[C@@H]5CCOC5)c34)CC2)CCOCC1` [[A]], the “5-HT4dR Emax” value [5] is given as 24% and the EC50 [5] is given as 0.2 nM.

For `CC(=O)Nc1ccc2c(CCC3CCN(Cc4ccccc4)CC3)noc2c1` [[B]], the IC50 [6] is given as 9000 nM, the “ratio BuAChE/AChE” value ([6]; selectivity ratio) is given as 3200 and the “effect on amnesia, passive avoidance model” value [7] is given as “reversion of amnesia”. For the same compound, the IC50 [8] was 2.8 nM and the “elevation of ACh in mouse” value [9] was “dose-dependent elevation of ACh”.

In the case of `COc1cc(N)c(Cl)cc1C(=O)CCC1CCN(CC2CCCCC2)CC1` [donecopride], the Ki [10] is listed as 8.5 ± 0.3 nM, the “% of control agonist response (5-HT4R)” value [11] is listed as 48% and the IC50 [12] is listed as 16 ± 5 nM. For the same compound, the “in vivo effects, object recognition test” value [13] was “improvement of memory performances”.

Reference: article PMC7033111, “Rational design of novel benzisoxazole derivatives with acetylcholinesterase inhibitory and serotoninergic 5-HT4 receptors activities for the treatment of Alzheimer’s disease” (Scientific Reports, 2020)
